Reference: US5728686A, “Alkylxanthine phosphonates and alkylxanthine phosphine oxides and their use as pharmaceuticals” (Hoechst Aktiengesellschaft, priority 1996, dated 1998)
≈ marks a conversion by molar mass, not a printed value.

Columns and labels:
[1] = system: phosphodiesterase III; experiment: inhibition of phosphodiesterase III activity; assay type: biochemical; details: at 100 μM
Procedure: 5. Inhibition of phosphodiesterase III activity
The test is carried out using phosphodiesterase from Boehringer Mannheim (Mannheim, Germany), Order No. 108 243 according to the method of T. SAEKI, I. SAITO, Biochem. Pharm. 46, No. 5, […], pages 833-839.
All numerical values are indicated in % inhibition of the enzyme activity at 100 μM of the corresponding compound of the formula I.

[2] = system: Endotoxin (LPS) from Salmonella abortus equi; experiment: effect on endotoxin fatality (LPS-induced septic shock); assay type: in vivo, female NMRI mice; details: 25 mg/kg i.p. at the same time as LPS 60 mg/kg i.p.; 72 hours; vs placebo control
Procedure: 2. Test for effect on endotoxin fatality
Individual injections of lipopolysaccharide (LPS), from gram-negative bacteria, lead via a series of various symptoms to septic shock, which usually turns out to be fatal. Endotoxin (LPS) from Salmonella abortus equi in a dose of 60 mg/kg i.p. leads to shock and to death with at most 72 h p.a. (the dose of 60 mg/kg corresponds to approximately 1.20 mg of LPS/animal).
The experimental animals used are female NMRI mice from the Hoechst AG/Hattersheim animal breeding unit having a body weight of 22 to 24 g.
The test substances administered intraperitoneally (i.p.) in an administration volume of 10 ml/kg at the same time as the LPS. The number of surviving animals after 72 hours' LPS administration is indicated in comparison to a placebo control. The number of tested animals per group is 5; dose 25 mg/kg.

[3] = system: isolated guinea pig trachea, agonist PGF2α; experiment: antagonist of PGF2α-induced contraction of isolated guinea pig trachea; assay type: cell-based; details: Cavia porcellus, 37° C., read-out: Anticontractile action (trachea), PGF2α: concentration range for dilatation corresponding to ED50 range
Excerpt: (§1) 3. Activity as antagonist of the contraction of isolated guinea pig trachea
(§2) The compounds of the formula I are used as antagonists of the contraction of isolated guinea pig trachea. The agonists employed were PGF2α (Upjohn, Germany), calcium ionophore A23187 (Calbiochem, Bad Soden, Germany), and substance P (American Peptide Comp., USA):
Inhibition of contractions which are induced by this cyclooxygenase product is only possible by competitive antagonism at the receptor or of the subsequent signal pathway.
(§3) Preparation of the organ sections and experimental procedure:
(§4) The guinea pig is sacrificed by means of terminal laughing gas anaesthesia. The trachea is exposed along its entire length and cut into 15 individual cartilage rings. 5 rings in each case are tied together to give a chain and fixed in the organ bath under a preload of 3 g. After an equilibration time of 45 minutes, a contraction is produced using the agonist. The antagonist (test preparation) is added cumulatively on the plateau of the maximum. Evaluation is carried out in % force change relative to the contraction maximum. The experimental procedure is carried out at 37° C.; the physiological nutrient solution used is a modified Krebs-Henseleit solution through which is bubbled 95% by volume of O2, 5% by volume of CO2.
(§5) Experimental animals: albino guinea pigs (Hattersheim Animal Breeding Institute, Kastengrund, Germany), weight: 200 to 300 g, sex male or female.
(§6) Vehicle: double-distilled water, ethanol or isopropanol; administration: into the organ bath number of administration: cumulative, in SP individual doses
(§7) All numerical values are indicated in the unit μg/ml and relate to the concentration range of the tested compound of the formula I according to the invention (see example numbers in Table 1) which is necessary in order to cause a dilatation which corresponds to the ED50 range.

[4] = system: isolated guinea pig trachea, agonist substance P; experiment: antagonist of substance P-induced contraction of isolated guinea pig trachea; assay type: cell-based; details: Cavia porcellus, individual doses, 37° C., read-out: Anticontractile action (trachea), SP antagonism: concentration range for dilatation corresponding to ED50 range
Excerpt: as §1, §2
The antagonism is possible on the one hand due to specific receptor antagonists, and on the other hand also due to inhibition of the subsequent signal pathway. Preparations which directly or indirectly increase the intracellular concentration of cyclic nucleotides in particular show spasmolytic properties here.
as §3, §4, §5, §6, §7

[5] = system: soleus muscle; experiment: rat muscle function test: muscle weight (atrophy of immobilized extremity); assay type: in vivo, male Wistar rats; details: oral, 1x per day for 3 weeks, as a rule 25 mg/kg, difference ≤25% classified as an effect
Method in brief: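 Male Wistar rats (~300 g) had the right hind limb immobilized in a padded plastic cast for 3 weeks with daily oral dosing by stomach tube, as a rule 25 mg/kg in carboxymethylcellulose. Soleus weight of the immobilized limb was compared with the contralateral limb; a difference of ≤25% was classed as an effect.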

[6] = system: isolated guinea pig trachea, agonist calcium ionophore A23187; experiment: antagonist of calcium ionophore A23187-induced contraction of isolated guinea pig trachea; assay type: cell-based; details: Cavia porcellus, 37° C., read-out: Anticontractile action (trachea), Ca ionophore: concentration range for dilatation corresponding to ED50 range
Excerpt: as §1, §2
b) Calcium ionophore A23187 (Calbiochem, Bad Soden) acts by increased uptake of calcium ions, and an activation of all calcium-dependent signal cascades in the cell. Lipoxygenase inhibitors, in particular, and generally antiinflammatory substances show effects in this model.
as §3, §4, §5, §6, §7

## CCOP(=O)(CCCn1cnc2c1c(=O)[nH]c(=O)n2C)OCC [Example 2, Diethyl [4-(3-methylxanthin-7-yl)propyl]phosphonate]
[1]
  PDE III Inhibition: 65%
[2]
  Inhibition of mortality: 100%
[3]
  EC50: > 10 µg/mL
[4]
  EC50: 10 to 30 µg/mL (≈ 29 to 87.1 µM)
[5]
  Muscle weight (right/left difference): -22 Δ %
[6]
  EC50: > 10 µg/mL
